The values below are quoted from earlier work in patent publication US20050101629A1, “Compositions of a chromene cyclooxygenase-2 selective inhibitor and a cholinergic agent for the treatment of reduced blood flow or trauma to the central nervous system” (Pharmacia Corporation, priority 2003, published 2005).

For this series the following is noted: administered to subjects following stroke; Adibhatla et al. (2002) J. Neurochem. 80:12-23.

Consider `C[N+](C)(C)CCOP(=O)(O)OP(=O)(O)OC[C@H]1O[C@@H](n2ccc(N)nc2=O)[C@H](O)[C@@H]1O` [citicoline], for which the behavioral parameters result is recorded as “improvement in behavioral parameters” and the infarction volume entry was “decrease in infarction volume”.
